Source: patent publication US12582809B2, “Treatment of a disease of the gastrointestinal tract with a PDE4 inhibitor” (BT Bidco, Inc., priority 2018, dated 2026)

Assays:
[1] = set-up: species or system Yorkshire-Cross farm swine; settings: in vivo
Procedure: The primary objective of this study was to compare the tissue, plasma, rectal sample, and GI content pharmacokinetics of tacrolimus through oral versus intra-cecal ingestible device delivery in normal Yorkshire-Cross farm swine.
(§1) No further randomization procedure was employed.
Animals in Group 1 received an ingestible device containing 0.8 mL of vehicle solution (80% alcohol, 20% HCO-60). Animals in Group 2 received orally […] liquid formulation of tacrolimus at 4 mg/0.8 mL per animal (Prograf: 5 mg/mL). Animals in Group 3 received intra-cecally an ingestible device containing tacrolimus at 1 mg in 0.8 mL per ingestible device. Animals in Group 4 received intra-cecally an ingestible device containing tacrolimus at 2 mg in 0.8 mL per ingestible device. Animals in Group 5 received intra-cecally an ingestible device containing tacrolimus at 4 mg in 0.8 mL per ingestible device. To control for potential confounding effects of the surgery, all groups fast on Day −11 at least 24 hr before being subjected to anesthesia followed by surgical placements of a cecal port by a veterinary surgeon at Day −10. All animals were fasted for at least 12 hr prior to dosing on Day 1. Animals were dosed via either intra-cecal dosing (IC) or oral dosing (PO) at Day 1 (between 6-8 p.m.). All animals resumed feeding at approximately 4 hours after dose (11-12 p.m. after dosing).
Animals in Group 1 (Vehicle Control) were administered a single intra-cecal ingestible device containing 0.8 mL Vehicle solution (80% alcohol, 20% castor oil (HCO-60) on Day 1. On Day −10 the animals were anesthetized, and a veterinary surgeon surgically placed an intra-cecal port in each animal. On Day 1, each animal was placed into a sling then a single intra-cecal ingestible device containing 0.8 mL vehicle solution (80% alcohol, 20% castor oil (HCO-60)) is introduced by the veterinary surgeon into the cecum via the cecal port in each animal. Following ingestible device placement, the animals were removed from the slings and placed back into their pens with water. All animals resumed feeding at approximately 4 hours after dose. […] A total of 60 samples were collected.
Approximately 200˜400 mg of rectal content were collected, if available, with a fecal swab (Copan Diagnostics Nylon Flocked Dry Swabs, 502CS01). The fecal swab was pre-weighed and weighed after collection in the collection tube (Sterile Tube and Cap No Media, PFPM913S), and the sample weight was recorded. The fecal swab was broken via the breakpoint, and was stored in the collection tube, and immediately frozen at −70° C. […] Immediately following euthanasia, tissue was collected.
For tissue necropsy, small intestine fluid and cecal fluid were collected separately from all the animals into two separate square plastic bottles, and stored at −20° C. The length and diameter of the cecum and the colon was measured from one animal in each group and recorded for reference. Tissues were collected for pharmacokinetic analyses and include mesenteric lymph nodes, a Peyer's Patch, and five gastrointestinal sections, including cecum, proximal colon, transverse colon, distal colon, and rectum. All samples were weighed, and the tissue sample weights were recorded. In each of the five gastrointestinal sections, tissue samples were collected in three different areas where the mucosal surface was visible and not covered by luminal content by using an 8.0-mm punch biopsy tool. Around 3 grams of the total punched sample were collected into a pre-weighed 15-mL conical tube, and the tissue weight was recorded. Three mesenteric lymph nodes were collected from different areas and weighed. At least one Peyer's Patch was collected and weighed.
Luminal contents were collected for pharmacokinetic analyses from the surface of the tissue from each of five gastrointestinal sections: cecum, proximal colon, transverse colon, distal colon, and rectum (total of 75). […]

[2] = Pharmacokinetic study of oral vs intra-cecal administration of tacrolimus (Example 13); set-up: species or system Yorkshire-Cross farm swine; settings: in vivo, 0.09 mg/kg
Text: as §1

[3] = female, Yorkshire-Cross, pig, po, 12 h

C=CC[C@@H]1/C=C(\C)C[C@H](C)C[C@H](OC)[C@H]2O[C@@](O)(C(=O)C(=O)N3CCCC[C@H]3C(=O)O[C@H](/C(C)=C/[C@@H]3CC[C@@H](O)[C@H](OC)C3)[C@H](C)[C@@H](O)CC1=O)[C@H](C)C[C@@H]2OC [tacrolimus]
exposure AUC [1]: < 2000-12 ng·h/mL
luminal content concentration, distal colon, IC capsule vs PO [1]: Significantly higher
luminal content concentration, spiral colon, IC capsule vs PO [1]: Significantly higher
luminal content concentration, transverse colon, IC capsule vs PO [1]: Significantly higher
tissue concentration, spiral colon, IC capsule vs PO [1]: Significantly higher
tissue concentration, transverse colon, IC capsule vs PO [1]: Significantly higher
level of tacrolimus detected in tissue ([1]; po): No measurable level
Kp at 12 h ([2]; female, Yorkshire-Cross, pig, po): 0
Ratio Tissue(mean) (ng/g)/Trough(12 hr) (ng/mL), Cecum [2, 3]: 0
Ratio Tissue(mean) (ng/g)/Trough(12 hr) (ng/mL), Distal Colon [2, 3]: 0
Ratio Tissue(mean) (ng/g)/Trough(12 hr) (ng/mL), Proximal Colon [2, 3]: 0
Ratio Tissue(mean) (ng/g)/Trough(12 hr) (ng/mL), Transverse colon [2, 3]: 0
Trough (12 hr) ([2]; female, Yorkshire-Cross, swine, po, 12 h): 0.568 ng/mL
concentration at 12 h ([2]; female, Yorkshire-Cross, swine, po, Trough (12 hr)): 0.568 ± 0.291 ng/mL
AUC0-12 hours in the blood, intra-cecal vs oral [2]: higher
mean concentration in the blood, intra-cecal vs oral [2]: higher
